The values that follow come from PubChem BioAssay AID1259407 (Chemical Carcinogenesis Research Information System (CCRIS), 2018).

The test system of this data set is CCRIS mutagenicity, Ames/micronucleus/aberration tests. Nature of the data set: CCRIS mutagenicity studies.
The mark [1] stands for this setting: Test System: AMES SALMONELLA TYPHIMURIUM, Strain/Indicator: TA98, Metabolic Activation: NONE, Method: PREINCUBATION
The mark [2] stands for this setting: Test System: AMES SALMONELLA TYPHIMURIUM, Strain/Indicator: TA100, Metabolic Activation: NONE, Method: PREINCUBATION

Calls of active or inactive are those of the source. No rule for the calls is given here.

Consider `Cc1ccc(S(=O)(=O)NN)cc1`, for which the mutagenic call is, setting by setting: (End Point: IN VITRO CHROMOSOMAL ABERRATIONS, Test System: CHL CELLS, Metabolic Activation: RAT, LIVER, S-9, SODIUM PHENOBARBITAL AND 5,6-BENZOFLAVONE) “active; positive (structural changes)”; (Test System: AMES SALMONELLA TYPHIMURIUM, Strain/Indicator: TA97, Metabolic Activation: NONE, Method: STANDARD PLATE) “inactive; negative”; (Test System: AMES SALMONELLA TYPHIMURIUM, Strain/Indicator: TA97, Metabolic Activation: RAT, LIVER, S-9, AROCLOR 1254, Method: STANDARD PLATE) “inactive; negative”; (Test System: AMES SALMONELLA TYPHIMURIUM, Strain/Indicator: TA98, Metabolic Activation: HAMSTER, LIVER, S-9, AROCLOR 1254, Method: STANDARD PLATE) “inactive; negative”; under setting [1], “inactive; negative”; (Test System: AMES SALMONELLA TYPHIMURIUM, Strain/Indicator: TA98, Metabolic Activation: NONE, Method: STANDARD PLATE) “inactive; negative”. Moreover, the mutagenic call by setting is: (Test System: AMES SALMONELLA TYPHIMURIUM, Strain/Indicator: TA98, Metabolic Activation: RAT LIVER S-9, PHENOBARBITAL AND BETA-NAPHTHOFLAVONE, Method: PREINCUBATION) “inactive; negative”; (Test System: AMES SALMONELLA TYPHIMURIUM, Strain/Indicator: TA98, Metabolic Activation: RAT, LIVER, S-9, AROCLOR 1254, Method: STANDARD PLATE) “inactive; negative”; (Test System: AMES SALMONELLA TYPHIMURIUM, Strain/Indicator: TA100, Metabolic Activation: HAMSTER, LIVER, S-9, AROCLOR 1254, Method: STANDARD PLATE) “active; positive”; under setting [2], “active; positive”; (Test System: AMES SALMONELLA TYPHIMURIUM, Strain/Indicator: TA100, Metabolic Activation: NONE, Method: STANDARD PLATE) “active; positive”; (Test System: AMES SALMONELLA TYPHIMURIUM, Strain/Indicator: TA100, Metabolic Activation: RAT LIVER S-9, PHENOBARBITAL AND BETA-NAPHTHOFLAVONE, Method: PREINCUBATION) “active; positive”. Moreover, the mutagenic call (Test System: AMES SALMONELLA TYPHIMURIUM, Strain/Indicator: TA100, Metabolic Activation: RAT, LIVER, S-9, AROCLOR 1254, Method: STANDARD PLATE) is “active; positive”; the mutagenic call (Test System: AMES SALMONELLA TYPHIMURIUM, Strain/Indicator: TA102, Metabolic Activation: NONE, Method: STANDARD PLATE) is “inactive; negative”; the mutagenic call (Test System: AMES SALMONELLA TYPHIMURIUM, Strain/Indicator: TA102, Metabolic Activation: RAT, LIVER, S-9, AROCLOR 1254, Method: STANDARD PLATE) is “inactive; negative”; the mutagenic call (Test System: AMES SALMONELLA TYPHIMURIUM, Strain/Indicator: TA1535, Metabolic Activation: NONE, Method: PREINCUBATION) is “active; positive”; the mutagenic call (Test System: AMES SALMONELLA TYPHIMURIUM, Strain/Indicator: TA1535, Metabolic Activation: RAT LIVER S-9, PHENOBARBITAL AND BETA-NAPHTHOFLAVONE, Method: PREINCUBATION) was “active; positive”; the mutagenic call (Test System: AMES SALMONELLA TYPHIMURIUM, Strain/Indicator: TA1537, Metabolic Activation: NONE, Method: PREINCUBATION) was “inactive; negative”. For the same compound, the mutagenic call is “inactive; negative” (Test System: AMES SALMONELLA TYPHIMURIUM, Strain/Indicator: TA1537, Metabolic Activation: RAT LIVER S-9, PHENOBARBITAL AND BETA-NAPHTHOFLAVONE, Method: PREINCUBATION); “inactive; negative” (Test System: AMES SALMONELLA TYPHIMURIUM, Strain/Indicator: TA1538, Metabolic Activation: NONE, Method: PREINCUBATION); “inactive; negative” (Test System: AMES SALMONELLA TYPHIMURIUM, Strain/Indicator: TA1538, Metabolic Activation: RAT LIVER S-9, PHENOBARBITAL AND BETA-NAPHTHOFLAVONE, Method: PREINCUBATION); “active; positive” (Test System: E.COLI, Strain/Indicator: WP2UVRA, Metabolic Activation: NONE, Method: PREINCUBATION); “active; positive” (Test System: E.COLI, Strain/Indicator: WP2UVRA, Metabolic Activation: RAT LIVER S-9, PHENOBARBITAL AND BETA-NAPHTHOFLAVONE, Method: PREINCUBATION); “active; positive. reevaluation of results: positive” (Test System: MOUSE LYMPHOMA, Strain/Indicator: L5178Y (TK+/TK-), Metabolic Activation: NONE, Method: SUSPENSION/PLATE). For the same compound, the mutagenic call (Test System: MOUSE LYMPHOMA, Strain/Indicator: L5178Y (TK+/TK-), Metabolic Activation: RAT, LIVER, S-9, AROCLOR 1254, Method: SUSPENSION/PLATE) was “active; positive. reevaluation of results: equivocal”.
Regarding `NNc1nncc2ccncc12`, the mutagenic call under setting [1] is “active; positive”; the mutagenic call (Test System: AMES SALMONELLA TYPHIMURIUM, Strain/Indicator: TA98, Metabolic Activation: RAT, LIVER, S-9, PCB, Method: PREINCUBATION) is “active; positive”; the mutagenic call under setting [2] was “active; positive”; the mutagenic call (Test System: AMES SALMONELLA TYPHIMURIUM, Strain/Indicator: TA100, Metabolic Activation: RAT, LIVER, S-9, PCB, Method: PREINCUBATION) was “active; positive”.
